Results published in patent publication US20250332173A1, “COMPOUNDS AND METHODS FOR MODULATING NUCLEIC ACID SPLICING” (REMIX THERAPEUTICS INC., priority 2021, published 2025).
Where two headings read alike, the source gives them in different places.

How the values were obtained:
HTT mRNA = assay: RT-qPCR splicing assay, HTT canonical junction (CJ) and alternative junction (AJ) mRNA; assay type: cell-based, human; conditions: for AC50: increase in HTT alternative junction (AJ) mRNA, read-out: HTT AJ AC50
How it was run: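 Following a 24-hour incubation of A673 or K562 cells with serially diluted compound (3-fold steps, highest final 10 uM), the lysates undergo cDNA synthesis plus qPCR. Canonical and alternative junctions are each quantified against PPIA, GAPDH or GUSB.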

SMN2 mRNA = assay: RT-qPCR splicing assay, SMN2 canonical junction (CJ) mRNA; assay type: cell-based, human; conditions: Table 5 panel, canonical junction qPCR, compound concentration having 50% response in CJ decrease, read-out: SMN2 IC50 (decrease in CJ mRNA levels)
How it was run: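 Exposure: 24 h, 37 °C, 11-point 3-fold dilutions from 10 uM final, DMSO at or below 0.25%, in A673 or K562 cells. Detection: cell-lysate RT-qPCR of canonical junction mRNA relative to GAPDH, GUSB or PPIA.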

[1] = test system: K562 (human chronic myelogenous leukemia) cells; assay: Cell Titer Glo 2.0 cell viability assay; assay type: cell-based; conditions: Homo sapiens, K562, 72 h, K562 cells, 72 hours, Cell Titer Glo 2.0; read-out: K562 GI50
Target C = assay: HiBiT protein abundance assay, Target C (Promega Nano-Glo HiBiT Lytic Detection System, knock-in K562 cell line); assay type: cell-based, human; conditions: HiBiT K562 cell line, 24 hours, top dose 10 μM, read-out: Effect on protein abundance, Target C (IC50 category)
How it was run: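 HiBiT knock-in K562 cells (10,000/well) were treated for 24 h at 37 °C with a 10-point 3-fold dilution series, top final concentration 10 μM, DMSO ≤0.25%. Lytic HiBiT luminescence was read, normalized to unmodified K562 and DMSO-treated controls, and IC50 was interpolated from a four-parameter logistic fit.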

[2] = Homo sapiens, decrease in HTT canonical junction (CJ) mRNA, RT-qPCR, read-out: HTT CJ IC50
[3] = Homo sapiens, Table 5 panel, canonical junction qPCR, compound concentration having 50% response in CJ decrease, read-out: HTT IC50 (decrease in CJ mRNA levels)

IC50 (HTT mRNA; [2]) [µM] | IC50 (HTT mRNA; [3]) [µM] | IC50 (SMN2 mRNA; Homo sapiens) [µM] | GI50 [1] [µM] | IC50 (Target C; Homo sapiens, K562, 24 h) [µM] | IC50 (HTT mRNA; Table 5 panel, canonical junction qPCR, compound concentration having 50% response in CJ decrease, read-out: HTT IC50 (decrease in CJ mRNA levels)) [µM] | IC50 (HTT mRNA; decrease in HTT canonical junction (CJ) mRNA, RT-qPCR, read-out: HTT CJ IC50) [µM] | IC50 (SMN2 mRNA) [µM] | IC50 (Target C) [µM] | SMILES | AC50 (HTT mRNA; Homo sapiens, RT-qPCR) [µM] | AC50 (HTT mRNA; RT-qPCR) [µM]
1 to 10 | 1 to 10 | 0.1 to 1 | 0.1 to 1 | 1 to 10 | – | – | – | – | Cc1nc2c(F)cc(-c3ccc4c(=O)n(C5CCNCC5)ncc4c3)cc2s1 [Compound 253] | 1 to 10 | –
1 to 10 | 1 to 10 | < 0.1 | 0.1 to 1 | 1 to 10 | – | – | – | – | Cc1cn2cc(-c3ccc4c(=O)n(C5CCNCC5)ncc4c3)cc(C(F)(F)F)c2n1 [Compound 262] | 1 to 10 | –
< 0.1 | < 0.1 | < 0.1 | < 0.1 | < 0.1 | – | – | – | – | Cc1cn2nc(-c3cc(F)c4c(=O)n(C5CCNCC5)cnc4c3)cc(C)c2n1 [Compound 243] | < 0.1 | –
1 to 10 | 1 to 10 | 0.1 to 1 | 1 to 10 | > 10 | – | – | – | – | Cc1cn2nc(-c3ccc4c(=O)n(C5CCNC5)ncc4c3)cc(C)c2n1 (stereo not drawn) [Compound 264] | 1 to 10 | –
> 10 | > 10 | 0.1 to 1 | 1 to 10 | > 10 | – | – | – | – | Cc1cn2cc(-c3ccc4c(c3)CCN(C3CCNCC3)C4=O)cc(C(F)(F)F)c2n1 [Compound 252] | > 10 | –
0.1 to 1 | < 0.1 | < 0.1 | < 0.1 | 0.1 to 1 | – | – | – | – | Cc1cn2cc(-c3ccc4c(=O)n(C5CCNCC5)ncc4c3)cc(F)c2n1 [Compound 248] | < 0.1 | –
– | – | – | 0.1 to 1 | – | 0.1 to 1 | 0.1 to 1 | < 0.1 | 0.1 to 1 | Cc1cn2nc(-c3ccc4c(=O)n([C@@H]5CCNC6(CC6)C5)cnc4c3)cc(C)c2n1 [Compound 444] | – | 0.1 to 1
0.1 to 1 | 0.1 to 1 | < 0.1 | 0.1 to 1 | 0.1 to 1 | – | – | – | – | Cc1nc2c(F)cc(-c3ccc4c(=O)n(C5CCNCC5)cnc4c3)cc2o1 [Compound 245] | 0.1 to 1 | –
> 10 | > 10 | 1 to 10 | > 10 | > 10 | – | – | – | – | O=c1c2ccc(-c3cn[nH]c3)cc2cnn1C1CCNCC1 [Compound 261] | > 10 | –
1 to 10 | 1 to 10 | 1 to 10 | 1 to 10 | 1 to 10 | – | – | – | – | Cc1cn2cc(-c3ccc4c(=O)n(C5CCN(C)CC5)cnc4c3)c(C)cc2n1 [Compound 246] | 1 to 10 | –
> 10 | > 10 | 0.1 to 1 | > 10 | > 10 | – | – | – | – | Cc1cn2cc(-c3ccc4c(=O)n(C5CCNCC5)cnc4c3)c(C)cc2n1 [Compound 244] | > 10 | –
0.1 to 1 | 0.1 to 1 | < 0.1 | < 0.1 | 0.1 to 1 | – | – | – | – | Cc1cn2cc(-c3ccc4c(=O)n(C5CCNCC5)ncc4c3)cc(C)c2n1 [Compound 257] | 0.1 to 1 | –
1 to 10 | 1 to 10 | 0.1 to 1 | 0.1 to 1 | > 10 | – | – | – | – | Cc1cn2cc(-c3ccc4c(=O)n(C5CCNCC5)ncc4c3)ncc2n1 [Compound 255] | 1 to 10 | –
1 to 10 | 1 to 10 | < 0.1 | 0.1 to 1 | 1 to 10 | – | – | – | – | Cc1cn2cc(-c3ccc4c(c3)CCN(C3CCNCC3)C4=O)cc(F)c2n1 [Compound 247] | 1 to 10 | –
0.1 to 1 | 0.1 to 1 | < 0.1 | 1 to 10 | 0.1 to 1 | – | – | – | – | Cc1cc(-c2ccc3c(=O)n(C4CCNCC4)ncc3c2)cc2cn(C)nc12 [Compound 251] | 0.1 to 1 | –
0.1 to 1 | 0.1 to 1 | 0.1 to 1 | 0.1 to 1 | 0.1 to 1 | – | – | – | – | Cc1cn2nc(-c3ccc4c(=O)n(C5CCNCC5)ncc4c3)nc2c(C)n1 [Compound 259] | 0.1 to 1 | –
< 0.1 | < 0.1 | < 0.1 | < 0.1 | 0.1 to 1 | – | – | – | – | Cc1nc2c(F)cc(-c3ccc4c(=O)n(C5CCNCC5)ncc4c3)cc2o1 [Compound 250] | < 0.1 | –
0.1 to 1 | 0.1 to 1 | < 0.1 | < 0.1 | 0.1 to 1 | – | – | – | – | Cc1cn2cc(-c3ccc4c(=O)n(C5CCNCC5)ncc4c3)cc(Cl)c2n1 [Compound 256] | 0.1 to 1 | –
0.1 to 1 | 0.1 to 1 | 0.1 to 1 | 0.1 to 1 | 1 to 10 | – | – | – | – | Cc1cn2nc(-c3ccc4c(=O)n(C5CCNCC5)ncc4c3)cc2c(C)n1 [Compound 260] | 0.1 to 1 | –
> 10 | > 10 | > 10 | 1 to 10 | 1 to 10 | – | – | – | – | Cn1cc2ccc(-c3ccc4c(=O)n(C5CCNCC5)ncc4c3)cc2n1 [Compound 263] | > 10 | –
1 to 10 | 1 to 10 | 1 to 10 | 1 to 10 | 1 to 10 | – | – | – | – | Cc1cn2cc(-c3ccc4c(=O)n(C5CCNCC5)ncc4c3)c(C)cc2n1 [Compound 254] | 1 to 10 | –
1 to 10 | 1 to 10 | 1 to 10 | 1 to 10 | 1 to 10 | – | – | – | – | Cn1cc2cc(-c3ccc4c(=O)n(C5CCNCC5)ncc4c3)cc(F)c2n1 [Compound 249] | 1 to 10 | –
< 0.1 | < 0.1 | < 0.1 | 0.1 to 1 | 0.1 to 1 | – | – | – | – | Cc1cn2nc(-c3ccc4c(=O)n(C5CCN(C)CC5)ncc4c3)cc(C)c2n1 [Compound 265] | < 0.1 | –
